Measurements published in EP4603105A1, “PHARMACEUTICAL COMPOSITION CONTAINING CYCLIC COMPOUND HAVING SELECTIVE KRAS INHIBITORY EFFECT AGAINST HRAS AND NRAS” (CHUGAI SEIYAKU KABUSHIKI KAISHA, priority 2022, dated 2024).
Where two headings read alike, the source gives them in different places. Where a SMILES comes first, the peptide text is derived from it. Bridges are numbered along the chain shown (N, C = ends). [ ]: non-standard residue; d: D form. The star is where a group is joined. hPhe(3-Cl-4-CF3) = N[C@@H](CCc1ccc(C(F)(F)F)c(Cl)c1)C(=O)O; NPrPhe(4-CF3) = CCCN[C@@H](Cc1ccc(C(F)(F)F)cc1)C(=O)O; NMeGly(cPent) = CN[C@H](C(=O)O)C1CCCC1; Pro(4,4-F2) = O=C(O)[C@@H]1CC(F)(F)CN1; NMeD = CN[C@@H](CC(=O)O)C(=O)O; NMeL = CN[C@@H](CC(C)C)C(=O)O; Morpholide = C1CN(*)CCO1; NMeA = CN[C@@H](C)C(=O)O; Pyrrolidide = C1CCN(*)C1; Ac5c = NC1(C(=O)O)CCCC1; Aze = O=C(O)[C@@H]1CCN1; Ac4c = NC1(C(=O)O)CCC1; NEtG = CCNCC(=O)O; Sar = CNCC(=O)O

Legend:
[1] = target: GDP-bound NRAS wild-type protein (Homo sapiens, UniProt P01111); assay: Binding to NRAS by surface plasmon resonance (SPR), KD and KD ratio to KRAS
Summary of the method: (§1)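 Compound binding is evaluated by SPR single-cycle kinetics, with concentrations added intermittently from low to high for 75 s each. Target surfaces carry GDP-loaded biotinylated Avi-RAS at about 100–300 RU, regenerated after each cycle; temperature 30°C. A 1:1 binding model gives KD.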

HRAS wild-type protein = HRAS wild-type protein (Homo sapiens, UniProt P01112); assay: Binding to HRAS by surface plasmon resonance (SPR), KD and KD ratio to KRAS
Summary of the method: as §1

[2] = system: human lung cancer strain NCI-H441; format: cell-based
Summary of the method: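 Proliferation was scored by […] measured after the reagent was added to cultures kept at 37°C in 5% carbon dioxide.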

[3] = ratio of KD for GDP-bound NRAS wild-type protein to KD for KRAS
[4] = ratio of KD for HRAS wild-type protein to KD for KRAS
[5] = NCI-H441 cells, 4 days, CellTiter-Glo, read-out: NCl-H441 IC50
[6] = ratio of the KD value with respect to GDP-bound NRAS wild-type protein to the KD value with respect to KRAS
[7] = ratio of the KD value with respect to HRAS wild-type protein to the KD value with respect to KRAS
[8] = ratio of KD value for GDP-bound NRAS wild-type protein to KD value for KRAS (SPR)
[9] = ratio of KD value for HRAS wild-type protein to KD value for KRAS (SPR)

Chain of GDP-bound NRAS wild-type protein (P01111 whole entry): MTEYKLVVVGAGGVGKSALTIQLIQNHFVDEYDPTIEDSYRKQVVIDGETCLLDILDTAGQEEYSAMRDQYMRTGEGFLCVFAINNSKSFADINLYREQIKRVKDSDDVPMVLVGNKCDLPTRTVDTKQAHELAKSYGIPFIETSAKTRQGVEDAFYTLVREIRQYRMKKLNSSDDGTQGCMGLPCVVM
Chain of HRAS wild-type protein (P01112 whole entry): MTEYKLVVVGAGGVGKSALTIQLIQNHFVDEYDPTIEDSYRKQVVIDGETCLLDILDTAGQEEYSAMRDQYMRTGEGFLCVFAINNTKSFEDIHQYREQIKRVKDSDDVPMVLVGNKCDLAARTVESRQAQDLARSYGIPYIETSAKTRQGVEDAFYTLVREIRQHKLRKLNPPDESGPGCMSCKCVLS

Structure (SMILES) | IC50 [2] [nM] | NRAS /KRAS [1, 3] | HRAS /KRAS (HRAS wild-type protein; [4]) | NRAS /KRAS [1, 6] | HRAS /KRAS (HRAS wild-type protein; [7]) | other results
CCO[C@@H]1C[C@H]2C(=O)NC3(CCC3)C(=O)N(C)[C@@H](C3CCCC3)C(=O)N(C)[C@H](C(=O)N3CCOCC3)CC(=O)N(C)[C@@H](Cc3ccccc3Cl)C(=O)N[C@@H]([C@@H](C)CC)C(=O)N(C)CC(=O)N(C)[C@H]3CCCCCN(C3=O)[C@@H](Cc3ccc(C(F)(F)F)cc3)C(=O)N(C)CC(=O)N[C@@H](CCc3cc(F)c(C(F)(F)F)c(F)c3)C(=O)N2C1 [PP0929] | 317 | A (a compound having 10 or more and less than 20 is denoted as A) | B (a compound having 3 or more and less than 10 is denoted as B) | – | – | –
CCO[C@@H]1C[C@H]2C(=O)NC3(CCC3)C(=O)N(C)[C@@H](C3CCCC3)C(=O)N(C)[C@H](C(=O)N3CCOCC3)CC(=O)N(C)[C@@H](CC)C(=O)N[C@@H]([C@@H](C)CC)C(=O)N3CC[C@H]3C(=O)N(C)[C@H]3CC(C)=CCN(C3=O)[C@@H](Cc3ccc(C(F)(F)F)cc3)C(=O)N(C)CC(=O)N[C@@H](CCc3cc(F)c(C(F)(F)F)c(F)c3)C(=O)N2C1 [PP1042] | 349 | C (A compound having a KD ratio of 0.1 or more and less than 3 is denoted as C) | C (A compound having a KD ratio of 0.1 or more and less than 3 is denoted as C) | – | – | –
CCC[C@H]1C(=O)N[C@@H]([C@@H](C)CC)C(=O)N(C)CC(=O)N(C)[C@H]2C/C=C\CCN(C2=O)[C@@H](Cc2ccc(C(F)(F)F)cc2)C(=O)N(C)CC(=O)N[C@@H](CCc2cc(Cl)c3c(ccn3C)c2)C(=O)N2C[C@H](OCC)C[C@H]2C(=O)NC2(CC(C)(C)C2)C(=O)N(C)[C@@H](C(CC)CC)C(=O)N(C)[C@H](C(=O)N(C)C)CC(=O)N1C [PP2896] | – | A (a compound having 10 or more and less than 20 is denoted as A) | A (a compound having 10 or more and less than 20 is denoted as A) | – | – | IC50 [2, 5]: 79.3 nM
CCOC[C@H]1C(=O)N[C@@H]([C@@H](C)CC)C(=O)N(C)CC(=O)N(C)[C@H]2C/C=C\CCN(C2=O)[C@@H](Cc2ccc(C)cc2F)C(=O)N(C)CC(=O)N[C@@H](CCc2ccc(C(F)(F)F)c(OC)c2)C(=O)N2C[C@@H](C)C[C@H]2C(=O)NC2(CC(C)(C)C2)C(=O)N(C)[C@@H](C2CCCC2)C(=O)N(C)[C@H](C(=O)N(C)CC)CC(=O)N1C [PP2697] | – | A (a compound having 10 or more and less than 20 is denoted as A) | A (a compound having 10 or more and less than 20 is denoted as A) | – | – | IC50 [2, 5]: 42.8 nM
CCO[C@@H]1C[C@H]2C(=O)NC3(CCC3)C(=O)N(C)[C@@H](C(CC)CC)C(=O)N(C)[C@H](CC)CC(=O)N(C)[C@@H](CC3CC3)C(=O)N[C@@H]([C@@H](C)CC)C(=O)N(C)CC(=O)N(C)[C@H]3C/C=C\CCN(C3=O)[C@@H](Cc3ccc(C(F)(F)F)cc3)C(=O)N(C)CC(=O)N[C@@H](CCc3cc(F)c(C(F)(F)F)c(F)c3)C(=O)N2C1 [PP1630] | 144 | – | – | – | – | NRAS /KRAS [1, 8]: A (a compound having 10 or more and less than 20 is denoted as A); HRAS /KRAS (HRAS wild-type protein; [9]): A (a compound having 10 or more and less than 20 is denoted as A)
CC[C@H](C)[C@@H]1NC(=O)[C@H](CC(C)C)N(C)C(=O)C[C@@H](C(=O)N2CCOCC2)N(C)C(=O)[C@H](C2CCCCC2)N(C)C(=O)C2(CCCC2)NC(=O)[C@@H]2CCCN2C(=O)[C@H](CCc2cc(F)c(C(F)(F)F)c(F)c2)NC(=O)CN(C)C(=O)[C@H](Cc2ccc(C(F)(F)F)cc2)N2CCCCC[C@@H](C2=O)N(C)C(=O)CN(C)C1=O [PP0505] | 210 | – | – | B (a compound having 3 or more and less than 10 is denoted as B) | B (a compound having 3 or more and less than 10 is denoted as B) | –
CCC[C@H]1C(=O)N[C@@H]([C@@H](C)CC)C(=O)N(C2CC2)CC(=O)N(C)[C@H]2C/C=C\CCN(C2=O)[C@@H](Cc2ccc(C(F)(F)F)cc2)C(=O)N(C)CC(=O)N[C@@H](CCc2cc(F)c(C(F)(F)F)c(F)c2)C(=O)N2C[C@H](OCC)C[C@H]2C(=O)NC2(CC(C)(C)C2)C(=O)N(C)[C@@H](CC2CC2)C(=O)N(C)[C@H](C(=O)N(C)C)CC(=O)N1C [PP2813] | 86 | AA (a compound having 20 or more is denoted as AA) | A (a compound having 10 or more and less than 20 is denoted as A) | – | – | –
CCCN1C(=O)CN(C)C(=O)CN(CC)C(=O)[C@H]([C@@H](C)CC)NC(=O)[C@H](CC(C)C)N(C)C(=O)C[C@@H](C(=O)N2CCOCC2)NC(=O)[C@H](C2CCCC2)N(C)C(=O)C2(CCC2)NC(=O)[C@@H]2CC(F)(F)CN2C(=O)[C@H](CCc2ccc(C(F)(F)F)c(Cl)c2)NC(=O)CN(C)C(=O)[C@@H]1Cc1ccc(C(F)(F)F)cc1 [PP0334] ([NMeL]I[NEtG][Sar][NPrPhe(4-CF3)][Sar][hPhe(3-Cl-4-CF3)][Pro(4,4-F2)][Ac4c][NMeGly(cPent)]D-Morpholide; lactam N-11) | 130 | B (a compound having 3 or more and less than 10 is denoted as B) | C (A compound having a KD ratio of 0.1 or more and less than 3 is denoted as C) | – | – | –

Continued, in another order:

IC50 [2] [nM] | Structure (SMILES) | NRAS /KRAS [1, 3] | HRAS /KRAS (HRAS wild-type protein; [4]) | NRAS /KRAS [1, 6] | HRAS /KRAS (HRAS wild-type protein; [7]) | other results
15.5 | CCO[C@@H]1C[C@H]2C(=O)NC3(CCC3)C(=O)N(C)[C@@H](C3CCCC3)C(=O)N(C)[C@H](C(=O)N3C[C@@H](C)O[C@@H](C)C3)CC(=O)N(C)[C@@H](CC(C)C)C(=O)N[C@@H]([C@@H](C)CC)C(=O)N(C)CC(=O)N(C)[C@H]3CCCCCN(C3=O)[C@@H](Cc3ccc(F)cc3)C(=O)N(C)CC(=O)N[C@@H](CCc3ccc(C(F)(F)F)c(Cl)c3)C(=O)N2C1 [PP1153] | – | – | – | – | NRAS /KRAS ([1]; ratio of KD with respect to GDP-bound NRAS wild-type protein to KD with respect to KRAS): B (a compound having 3 or more and less than 10 is denoted as B); HRAS /KRAS (HRAS wild-type protein; ratio of KD with respect to HRAS wild-type protein to KD with respect to KRAS): B (a compound having 3 or more and less than 10 is denoted as B)
5.9 | C#CC[C@H]1C(=O)N[C@@H]([C@@H](C)CC)C(=O)N(C)CC(=O)N(C)[C@H]2C/C=C\CCN(C2=O)[C@@H](Cc2ccc(C(F)(F)F)cc2)C(=O)N(C)CC(=O)N[C@@H](CCc2cc(F)c(C(F)(F)F)c(F)c2)C(=O)N2C[C@H](OCC)C[C@H]2C(=O)NC2(CC(C)(C)C2)C(=O)N(C)[C@@H](C2CCCC2)C(=O)N(C)[C@H](C(=O)N(C)CCC)CC(=O)N1C [PP2074] | – | – | A (a compound having 10 or more and less than 20 is denoted as A) | A (a compound having 10 or more and less than 20 is denoted as A) | –
4.5 | CCCN1C(=O)[C@@H]2CCN2C(=O)[C@H](C)N(C)C(=O)[C@H]([C@@H](C)CC)NC(=O)[C@H](CC(C)C)N(C)C(=O)C[C@@H](C(=O)N2CCCC2)N(C)C(=O)[C@H](C2CCCC2)N(C)C(=O)C2(CCCC2)NC(=O)[C@@H]2CCCN2C(=O)[C@H](CCc2ccc(C(F)(F)F)c(Cl)c2)NC(=O)CN(C)C(=O)[C@@H]1Cc1ccc(C(F)(F)F)cc1 [PP0179] ([NMeL]I[NMeA][Aze][NPrPhe(4-CF3)][Sar][hPhe(3-Cl-4-CF3)]P[Ac5c][NMeGly(cPent)][NMeD]-Pyrrolidide; lactam N-11) | C (A compound having a KD ratio of 0.1 or more and less than 3 is denoted as C) | B (a compound having 3 or more and less than 10 is denoted as B) | – | – | –
6.3 | CC[C@H](C)[C@@H]1NC(=O)[C@H](CC2CC2)N(C)C(=O)C[C@@H](C(=O)N(C)C)N(C)C(=O)[C@H](C2CCCC2)N(C)C(=O)C2(CC(C)(C)C2)NC(=O)[C@@H]2C[C@H](C)CN2C(=O)[C@H](CCc2ccc(C(F)(F)F)c(OC)c2)NC(=O)CN(C)C(=O)[C@H](Cc2ccc(C)cc2)N2CC/C=C\C[C@@H](C2=O)N(C)C(=O)CN(C)C1=O [PP1898] | – | – | B (a compound having 3 or more and less than 10 is denoted as B) | B (a compound having 3 or more and less than 10 is denoted as B) | –
23.2 | CCO[C@@H]1C[C@H]2C(=O)NC3(CCC3)C(=O)N(C)[C@@H](C3CCCC3)C(=O)N(C)[C@H](C(=O)N(C)C)CC(=O)N(C)[C@@H](CC(C)C)C(=O)N[C@@H]([C@@H](C)CC)C(=O)N(C)CC(=O)N(C)[C@H]3C/C=C\CCN(C3=O)[C@@H](Cc3ccc(F)cc3)C(=O)N(C)CC(=O)N[C@@H](CCc3cc(F)c(C(F)(F)F)c(F)c3)C(=O)N2C1 [PP1488] | – | – | – | – | NRAS /KRAS [1, 8]: A (a compound having 10 or more and less than 20 is denoted as A); HRAS /KRAS (HRAS wild-type protein; [9]): B (a compound having 3 or more and less than 10 is denoted as B)
19.9 | CCO[C@@H]1C[C@H]2C(=O)NC3(CCC3)C(=O)N(C)[C@@H](C3CCCC3)C(=O)N(C)[C@H](C(=O)N3CCOCC3)CC(=O)N(C)[C@@H](C)C(=O)N[C@@H]([C@@H](C)CC)C(=O)N(C)CC(=O)N(C)[C@H]3CCCCCN(C3=O)[C@@H](Cc3ccc(C(F)(F)F)cc3)C(=O)N(C)CC(=O)N[C@@H](CCc3cc(F)c(C(F)(F)F)c(F)c3)C(=O)N2C1 [PP0474] | – | – | B (a compound having 3 or more and less than 10 is denoted as B) | B (a compound having 3 or more and less than 10 is denoted as B) | –
7.4 | CCC[C@H]1C(=O)N[C@@H]([C@@H](C)CC)C(=O)N(C2CC2)CC(=O)N(C)[C@H]2C/C=C\CCN(C2=O)[C@@H](Cc2ccc(C)cc2)C(=O)N(C)CC(=O)N[C@@H](CCc2cc(F)c(C(F)(F)F)c(F)c2)C(=O)N2C[C@H](OCC)C[C@H]2C(=O)NC2(CC(C)(C)C2)C(=O)N(C)[C@@H](C2CCCC2)C(=O)N(C)[C@H](C(=O)N(C)C)CC(=O)N1C [PP2093] | – | – | A (a compound having 10 or more and less than 20 is denoted as A) | A (a compound having 10 or more and less than 20 is denoted as A) | –
